Measured values reported in ChEMBL document CHEMBL2311464, “Potent inhibitors of CDK5 derived from roscovitine: synthesis, biological evaluation and molecular modelling” (Bioorg Med Chem Lett, 2013).

Assays:
[1] = molecular target: Cyclin-dependent kinase 2/cyclin A (Homo sapiens, UniProt P24941); experiment: Inhibition of recombinant human CDK2/cyclin A after 30 mins by scintillation counting; type: protein-complex assay
cells = details: Homo sapiens, SH-SY5Y, 48 h
Description: Cytotoxicity against human SH-SY5Y cells after 48 hrs by MTS assay

[2] = Inhibition of porcine brain CK1 delta/epsilon using RRKHAAIGpSAYSITA as substrate measured after 30 mins by scintillation counting; design: species or system Sus scrofa
[3] = molecular target: Cyclin-dependent kinase 5/CDK5 activator 1 (Homo sapiens, UniProt Q00535); experiment: Inhibition of recombinant human CDK5/p25 after 30 mins by scintillation counting; type: protein-complex assay
Cyclin-dependent kinase 5/CDK5 activator 1, sequence (Q00535 whole entry): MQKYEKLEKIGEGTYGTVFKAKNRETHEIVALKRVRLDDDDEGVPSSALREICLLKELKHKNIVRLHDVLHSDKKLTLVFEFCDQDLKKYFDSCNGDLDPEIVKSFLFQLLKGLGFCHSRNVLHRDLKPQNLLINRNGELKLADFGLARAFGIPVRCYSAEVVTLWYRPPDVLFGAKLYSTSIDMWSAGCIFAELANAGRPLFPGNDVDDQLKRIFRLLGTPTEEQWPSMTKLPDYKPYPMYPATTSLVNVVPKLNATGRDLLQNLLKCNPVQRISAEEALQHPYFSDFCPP
Cyclin-dependent kinase 5/CDK5 activator 1, sequence (Q15078 whole entry, further chain): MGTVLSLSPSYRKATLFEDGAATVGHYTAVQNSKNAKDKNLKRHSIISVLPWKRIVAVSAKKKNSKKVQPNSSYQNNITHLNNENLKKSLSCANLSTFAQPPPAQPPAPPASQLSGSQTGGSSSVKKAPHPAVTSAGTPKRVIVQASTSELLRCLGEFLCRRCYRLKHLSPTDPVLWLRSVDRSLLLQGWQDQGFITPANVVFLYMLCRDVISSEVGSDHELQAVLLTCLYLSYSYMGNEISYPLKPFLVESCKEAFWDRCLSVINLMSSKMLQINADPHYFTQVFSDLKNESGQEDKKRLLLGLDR

[4] = molecular target: Glycogen synthase kinase-3 (Sus scrofa, UniProt B2LUN4+I6LNT8); experiment: Inhibition of porcine GSK-3alpha/beta using YRRAAVPPSPSLSRHSSPHQSpEDEEE as substrate measured after 30 mins by scintillation counting
SH-SY5Y [5] = experiment: Ratio of roscovitine IC50 to compound IC50 for human SH-SY5Y cells after 48 hrs by MTS assay; type: functional
SH-SY5Y [6] = experiment: Ratio of DRF53 IC50 to compound IC50 for human SH-SY5Y cells after 48 hrs by MTS assay; type: functional
[7] = molecular target: Dual specificity tyrosine-phosphorylation-regulated kinase 1A (Homo sapiens, UniProt Q13627); experiment: Inhibition of recombinant GST-fused human DYRK1A expressed in Escherichia coli using KKISGRLSPIMTEQ as substrate
Sus scrofa = organism: Sus scrofa; experiment: Inhibition of porcine brain CK1 delta/epsilon using RRKHAAIGpSAYSITA as substrate at 0.1 uM measured after 30 mins by scintillation counting
[8] = molecular target: Cyclin-dependent kinase 1/cyclin B1 (Homo sapiens, UniProt P06493); experiment: Inhibition of CDK2/cyclin B (unknown origin) after 30 mins by scintillation counting
Cyclin-dependent kinase 1/cyclin B1, sequence (P06493 whole entry): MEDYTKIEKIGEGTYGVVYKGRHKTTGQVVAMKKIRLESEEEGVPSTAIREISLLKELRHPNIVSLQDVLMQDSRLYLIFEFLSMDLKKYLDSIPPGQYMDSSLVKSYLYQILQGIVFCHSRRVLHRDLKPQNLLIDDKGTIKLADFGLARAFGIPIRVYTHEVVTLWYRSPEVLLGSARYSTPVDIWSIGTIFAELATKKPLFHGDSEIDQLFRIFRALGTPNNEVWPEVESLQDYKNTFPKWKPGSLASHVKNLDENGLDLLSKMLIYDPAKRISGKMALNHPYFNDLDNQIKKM
Cyclin-dependent kinase 1/cyclin B1, sequence (P14635 whole entry, further chain): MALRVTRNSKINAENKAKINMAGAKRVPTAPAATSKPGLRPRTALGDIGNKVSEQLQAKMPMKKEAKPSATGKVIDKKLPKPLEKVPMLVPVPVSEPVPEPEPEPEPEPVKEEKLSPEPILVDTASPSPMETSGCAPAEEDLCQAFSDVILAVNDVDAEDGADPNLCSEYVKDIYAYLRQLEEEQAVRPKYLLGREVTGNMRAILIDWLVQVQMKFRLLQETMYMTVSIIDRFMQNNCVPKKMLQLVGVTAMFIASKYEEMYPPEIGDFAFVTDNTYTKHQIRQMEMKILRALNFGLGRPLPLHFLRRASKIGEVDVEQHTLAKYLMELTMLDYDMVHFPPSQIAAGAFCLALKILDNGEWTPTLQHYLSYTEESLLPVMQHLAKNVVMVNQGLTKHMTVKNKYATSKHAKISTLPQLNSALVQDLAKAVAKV

Row | Compound | IC50 [1] [nM] | IC50 (cells) [nM] | IC50 [2] [nM] | IC50 [3] [nM] | IC50 [4] [nM] | Ratio IC50 (SH-SY5Y [5]) | Ratio IC50 (SH-SY5Y [6]) | IC50 [7] [nM] | inhibition (Sus scrofa) [%] | IC50 [8] [nM]
1 | CC(C)[C@H](CO)Nc1nc(Nc2ncccn2)c2ncn(C(C)C)c2n1 | > 10000 | 1800 | > 10000 | > 10000 | > 10000 |  |  |  |  | 
2 | CC(C)n1cnc2c(Nc3cncnc3)nc(Nc3cncnc3)nc21 | 170 | 1800 | 220 | 360 | > 10000 |  |  |  |  | 
3 | CC(C)n1cnc2c(Nc3ccnnc3)nc(Cl)nc21 | 1600 | 1800 | 1100 | 3000 | > 10000 |  |  |  |  | 
4 | CC(C)n1cnc2c(Nc3ccncc3)nc(Cl)nc21 | 700 | 1800 | 2100 | 7400 | 18000 |  |  |  |  | 
5 | CC(C)[C@@H](CO)Nc1nc(Nc2ccncn2)c2ncn(C(C)C)c2n1 | 790 | 1800 | 4900 | 3200 | 22000 |  |  |  |  | 
6 | CC(C)[C@@H](CO)Nc1nc(Nc2ccccn2)c2ncn(C(C)C)c2n1 | 1200 | 1800 | 11000 | 1900 | > 10000 |  |  |  |  | 
7 | CC[C@H](CO)Nc1nc(Nc2ccccn2)c2ncn(C(C)C)c2n1 | 1000 | 1800 | 6200 | 2300 | 33000 |  |  |  |  | 
8 | CC[C@@H](CO)Nc1nc(Nc2ccncn2)c2ncn(C(C)C)c2n1 | 2000 |  | 8300 |  | > 10000 |  |  |  |  | 
9 | CC[C@H](CO)Nc1nc(Nc2ncccn2)c2ncn(C(C)C)c2n1 | > 10000 | 1800 | > 10000 | > 10000 | > 10000 |  |  |  |  | 
10 | CC(C)n1cnc2c(Nc3ccccn3)nc(Cl)nc21 | 6200 | 1800 | 3000 | 2100 | > 10000 |  |  |  |  | 
11 | CC(C)n1cnc2c(Nc3ccncn3)nc(Cl)nc21 | 13000 | 1800 | 8000 | > 10000 | > 10000 | 5 | 5 | > 10000 |  | 
12 | CC(C)[C@H](CO)Nc1nc(Nc2cncnc2)c2ncn(C(C)C)c2n1 | 20 | 1800 | 1300 | 38 | 5000 |  |  |  |  | 
13 | CC[C@@H](CO)Nc1nc(Nc2ccnnc2)c2ncn(C(C)C)c2n1 | 29 | 1800 | 1000 | 42 | 7300 |  |  |  |  | 
14 | CC(C)[C@H](CO)Nc1nc(Nc2cccnc2)c2ncn(C(C)C)c2n1 | 18 | 1800 | 2200 | 22 | 7300 |  |  |  |  | 
15 | CC[C@H](CO)Nc1nc(Nc2ccncc2)c2ncn(C(C)C)c2n1 | 38 | 1800 | 1000 | 17 | > 10000 |  |  |  |  | 
16 | CC(C)n1cnc2c(Nc3cnccn3)nc(Cl)nc21 | 3100 | 1800 | 7000 | 12000 | > 10000 |  |  |  |  | 
17 | CC(C)[C@H](CO)Nc1nc(Nc2cccc(Cl)c2)c2ncn(C(C)C)c2n1 |  |  |  |  |  |  |  |  | 100 | 
18 | CC(C)n1cnc2c(Nc3cncnc3)nc(Cl)nc21 | 180 | 1800 | 2300 | 2800 | > 10000 |  |  |  |  | 
19 | CC[C@H](CO)Nc1nc(Nc2ccncn2)c2ncn(C(C)C)c2n1 | 1200 |  | 5800 |  | > 10000 |  |  |  |  | 
20 | CC[C@H](CO)Nc1nc(Nc2ccnnc2)c2ncn(C(C)C)c2n1 | 72 | 1800 | 500 | 60 | 13000 |  |  |  |  | 

Row | Compound | IC50 [1] [nM] | IC50 (cells) [nM] | IC50 [2] [nM] | IC50 [3] [nM] | IC50 [4] [nM] | Ratio IC50 (SH-SY5Y [5]) | Ratio IC50 (SH-SY5Y [6]) | IC50 [7] [nM] | inhibition (Sus scrofa) [%] | IC50 [8] [nM]
21 | CC(C)n1cnc2c(Nc3ncccn3)nc(Cl)nc21 | > 10000 | 1800 | 8000 | > 10000 | > 10000 | 5 | 5 | > 10000 |  | 
22 | CC[C@H](CO)Nc1nc(NCc2ccccc2)c2ncn(C(C)C)c2n1 [SELICICLIB] |  | 17400 | 2300 |  |  |  |  |  |  | 
23 | CC(C)[C@@H](CO)Nc1nc(Nc2cccnc2)c2ncn(C(C)C)c2n1 | 120 | 1800 | 2700 | 300 | > 10000 |  |  |  |  | 
24 | CC[C@@H](CO)Nc1nc(Nc2ccncc2)c2ncn(C(C)C)c2n1 | 50 | 1800 | > 1000 | 50 | 6000 |  |  |  |  | 
25 | CC(C)[C@@H](CO)Nc1nc(Nc2ccncc2)c2ncn(C(C)C)c2n1 | 130 | 1800 | 3300 | 200 | 7800 |  |  |  |  | 
26 | CC(C)[C@H](CO)Nc1nc(Nc2ccccn2)c2ncn(C(C)C)c2n1 | 800 | 1800 | 6200 | 1100 | > 10000 |  |  |  |  | 
27 | CC[C@@H](CO)Nc1nc(Nc2ccccn2)c2ncn(C(C)C)c2n1 | 530 | 1800 | 12000 | 4100 | 21000 |  |  |  |  | 
28 | CC(C)[C@@H](CO)Nc1nc(Nc2ncccn2)c2ncn(C(C)C)c2n1 | 9000 | 1800 | > 10000 | 10000 | > 10000 |  |  |  |  | 
29 | CC(C)[C@H](CO)Nc1nc(Nc2ccnnc2)c2ncn(C(C)C)c2n1 | 28 | 1800 | 800 | 41 | 6000 |  |  |  |  | 
30 | CC[C@@H](CO)Nc1nc(Nc2ncccn2)c2ncn(C(C)C)c2n1 | 7300 | 1800 | > 10000 | 11000 | > 10000 |  |  |  |  | 
31 | CC(C)n1cnc2c(Nc3cccnc3)nc(Cl)nc21 | 680 | 1800 | 2100 | 1100 | > 10000 |  |  |  |  | 
32 | CC(C)[C@@H](CO)Nc1nc(Nc2cncnc2)c2ncn(C(C)C)c2n1 | 110 | 1800 | 2000 | 370 | 16000 |  |  |  |  | 
33 | CC[C@@H](CO)Nc1nc(Nc2cncnc2)c2ncn(C(C)C)c2n1 | 23 | 1800 | 930 | 76 | > 10000 |  |  |  |  | 
34 | CC[C@@H](CO)Nc1nc(Nc2cccnc2)c2ncn(C(C)C)c2n1 | 14 | 1800 | 2000 | 90 | > 10000 |  |  |  |  | 
35 | CC(C)[C@H](CO)Nc1nc(Nc2ccncn2)c2ncn(C(C)C)c2n1 | 330 | 1800 | 2800 | 730 | > 10000 |  |  |  |  | 
36 | CC[C@H](CO)Nc1nc(Nc2cncnc2)c2ncn(C(C)C)c2n1 | 18 | 1800 | 600 | 42 | > 10000 |  |  |  |  | 
37 | CC(C)[C@@H](CO)Nc1nc(Nc2ccnnc2)c2ncn(C(C)C)c2n1 | 120 | 1800 | 1900 | 230 | 4300 |  |  |  |  | 
38 | CC[C@H](CO)Nc1nc(Nc2cccc(-c3ccccn3)c2)c2ncn(C(C)C)c2n1 |  |  | 14 | 80 |  |  |  |  |  | 220
39 | CC(C)[C@H](CO)Nc1nc(Nc2ccncc2)c2ncn(C(C)C)c2n1 | 20 | 1800 | 1800 | 21 | 12000 |  |  |  |  | 
40 | CC[C@H](CO)Nc1nc(Nc2cccnc2)c2ncn(C(C)C)c2n1 | 50 | 1800 | 1000 | 25 | 10000 |  |  |  |  | 
